Assay results from ChEMBL document CHEMBL3046007, “Isonicotinic acid hydrazide derivatives: synthesis, antimicrobial activity, and QSAR studies” (Med Chem Res, 2012).
In brackets after ≈: the same amount, converted by molar mass.

How the values were obtained:
Aspergillus niger = experiment: Antimicrobial activity against Aspergillus niger after 7 days by serial dilution method; type: functional
Candida albicans = experiment: Antimicrobial activity against Candida albicans after 48 hr by serial dilution method; type: functional
Human alphaherpesvirus 1 [1] = experiment: Antiviral activity against Human herpesvirus 1 strain KOS infected in human HEL cells assessed as inhibition of virus-induced cytopathicity; type: functional, organism-based; conditions: Human alphaherpesvirus 1, KOS
[2] = Cytotoxicity against Homo sapiens (human) HEL cells; type: cell-based
Coxsackievirus B4 [3] = experiment: Antiviral activity against Human coxsackievirus B4 infected human HeLa cells assessed as inhibition of virus-induced cytopathicity; type: functional, organism-based; conditions: Enterovirus B
[4] = system: Mammalian orthoreovirus 1; experiment: Antiviral activity against Mammalian orthoreovirus 1 infected Vero cells assessed as inhibition of virus-induced cytopathicity; type: functional, organism-based; conditions: Mammalian orthoreovirus 1, Vero
Bacillus subtilis = experiment: Antimicrobial activity against Bacillus subtilis after 24 hr by serial dilution method; type: functional
Vaccinia virus = experiment: Antiviral activity against Vaccinia virus infected human HEL cells assessed as inhibition of virus-induced cytopathicity; type: functional, organism-based; conditions: Orthopoxvirus vaccinia
[5] = Cytotoxicity against Homo sapiens (human) MT4 cells; type: cell-based
[6] = system: Human immunodeficiency virus 2; experiment: Antiviral activity against Human immunodeficiency virus type 2 (ISOLATE ROD) infected human MT4 cells assessed as inhibition of virus-induced cytopathicity; type: functional, organism-based; conditions: Human immunodeficiency virus 2, ISOLATE ROD
Human alphaherpesvirus 2 = experiment: Antiviral activity against Human herpesvirus 2 strain G infected human HEL cells assessed as inhibition of virus-induced cytopathicity; type: functional, organism-based; conditions: Human alphaherpesvirus 2, strain G
[7] = system: Respiratory syncytial virus; experiment: Antiviral activity against Respiratory syncytial virus infected human HeLa cells assessed as inhibition of virus-induced cytopathicity; type: functional, organism-based
Staphylococcus aureus = experiment: Antimicrobial activity against Staphylococcus aureus after 24 hr by serial dilution method; type: functional
[8] = system: Human immunodeficiency virus 1; experiment: Antiviral activity against Human immunodeficiency virus 1 IIIB infected human MT4 cells assessed as inhibition of virus-induced cytopathicity; type: functional, organism-based
Human alphaherpesvirus 1 [9] = experiment: Antiviral activity against TK(-) aciclovir-resistant Human herpesvirus 1 strain KOS infected in human HEL cells assessed as inhibition of virus-induced cytopathicity; type: functional, organism-based; conditions: Human alphaherpesvirus 1, KOS
[10] = Cytotoxicity against Chlorocebus aethiops (African green monkey) Vero cells assessed as alteration in cell morphology; type: cell-based; conditions: chlorocebus sabaeus
Punta Toro virus = experiment: Antiviral activity against Punta Toro virus infected Vero cells assessed as inhibition of virus-induced cytopathicity; type: functional, organism-based
Coxsackievirus B4 [11] = experiment: Antiviral activity against Human coxsackievirus B4 infected Vero cells assessed as inhibition of virus-induced cytopathicity; type: functional, organism-based; conditions: Enterovirus B
Sindbis virus = experiment: Antiviral activity against Sindbis virus infected Vero cells assessed as inhibition of virus-induced cytopathicity; type: functional, organism-based
Human respirovirus 3 = experiment: Antiviral activity against Human parainfluenza virus 3 infected Vero cells assessed as inhibition of virus-induced cytopathicity; type: functional, organism-based; conditions: Human respirovirus 3, Vero
[12] = system: Vesicular stomatitis virus; experiment: Antiviral activity against Vesicular stomatitis virus infected human HeLa cells assessed as inhibition of virus-induced cytopathicity; type: functional, organism-based
Escherichia coli = experiment: Antimicrobial activity against Escherichia coli after 24 hr by serial dilution method; type: functional
[13] = Cytotoxicity against Homo sapiens (human) HeLa cells; type: cell-based

SMILES | -logMIC (Aspergillus niger) | -logMIC (Candida albicans) | EC50 (Human alphaherpesvirus 1 [1]) | MCC [2] | EC50 (Coxsackievirus B4 [3]) | EC50 [4] | -logMIC (Bacillus subtilis) | EC50 (Vaccinia virus) | CC50 [5] | EC50 [6] | EC50 (Human alphaherpesvirus 2) | EC50 [7] | -logMIC (Staphylococcus aureus) | EC50 [8] | EC50 (Human alphaherpesvirus 1 [9]) | MCC [10] | EC50 (Punta Toro virus) | EC50 (Coxsackievirus B4 [11]) | EC50 (Sindbis virus) | -logMIC (Escherichia coli) | also measured
OC(Cn1cncn1)(Cn1cncn1)c1ccc(F)cc1F [FLUCONAZOLE] | 2.64 | 2.64 |  |  |  |  |  |  |  |  |  |  |  |  |  |  |  |  |  |  | 
COc1cc(/C=N/N(C(=O)c2ccccc2)C(=O)c2ccncc2)ccc1O | 2.48 | 3.08 | > 100 µg/mL | > 100 µg/mL | > 20 µg/mL | > 100 µg/mL | 2.18 | > 100 µg/mL | 105 µg/mL (≈ 280 µM) | > 105 µg/mL | > 100 µg/mL | > 20 µg/mL | 2.48 | > 105 µg/mL | > 100 µg/mL | ≥ 100 µg/mL | > 100 µg/mL | > 100 µg/mL | > 100 µg/mL | 2.48 | EC50 (Human respirovirus 3): > 100 µg/mL; EC50 [12]: > 20 µg/mL; MCC [13]: 100 µg/mL
Cc1cn([C@H]2C[C@H](N=[N+]=[N-])[C@@H](CO)O2)c(=O)[nH]c1=O [ZIDOVUDINE] |  |  |  |  |  |  |  |  | > 25 µg/mL |  |  |  |  |  |  |  |  |  |  |  | 
COc1cccc(OC)c1/C=N/NC(=O)c1ccncc1 | 2.36 | 2.36 | > 100 µg/mL | > 100 µg/mL | > 20 µg/mL | > 20 µg/mL | 2.06 | > 100 µg/mL | 9 µg/mL (≈ 31.5 µM) | > 9 µg/mL | > 100 µg/mL | > 20 µg/mL | 2.06 | > 9 µg/mL | > 100 µg/mL | 100 µg/mL | > 20 µg/mL | > 20 µg/mL | > 20 µg/mL | 2.06 | EC50 (Human respirovirus 3): > 20 µg/mL; EC50 [12]: > 20 µg/mL; MCC [13]: 100 µg/mL
CSc1ccc(/C=N/N(C(=O)c2ccccc2)C(=O)c2ccncc2)cc1 | 2.48 | 2.78 | > 100 µg/mL | > 100 µg/mL | > 100 µg/mL | > 100 µg/mL | 2.18 | > 100 µg/mL | 69 µg/mL (≈ 184 µM) | > 69 µg/mL | > 100 µg/mL | > 100 µg/mL | 2.18 | > 69 µg/mL | > 100 µg/mL | ≥ 100 µg/mL | > 100 µg/mL | 9 µg/mL (≈ 24 µM) | > 100 µg/mL | 2.48 | EC50 (Human respirovirus 3): > 100 µg/mL; EC50 [12]: > 100 µg/mL; MCC [13]: > 100 µg/mL
O=C(N/N=C/c1ccccc1O)c1ccncc1 [SALINAZID] | 2.29 | 2.29 |  |  |  |  | 1.98 |  | 2.52 µg/mL (≈ 10.4 µM) | > 2.52 µg/mL |  |  | 1.98 | > 2.52 µg/mL |  |  |  |  |  | 2.29 | 
Cc1ccnc2c1NC(=O)c1cccnc1N2C1CC1 [NEVIRAPINE] |  |  |  |  |  |  |  |  | > 4 µg/mL | > 4 µg/mL |  |  |  |  |  |  |  |  |  |  | 
Cc1ccc(/C=N/NC(=O)c2ccncc2)cc1 [N'-(4-METHYLBENZYLIDENE)ISONICOTINOHYDRAZIDE] | 2.28 | 2.28 | > 100 µg/mL | > 100 µg/mL | 9 µg/mL (≈ 37.6 µM) | > 20 µg/mL | 1.98 | > 100 µg/mL | 25 µg/mL (≈ 104 µM) | > 25 µg/mL | > 100 µg/mL | > 20 µg/mL | 1.98 | > 25 µg/mL | > 100 µg/mL | ≥ 20 µg/mL | > 20 µg/mL | > 20 µg/mL | > 20 µg/mL | 1.98 | EC50 (Human respirovirus 3): > 20 µg/mL; EC50 [12]: > 20 µg/mL; MCC [13]: 100 µg/mL
NNC(=O)c1ccncc1 [ISONIAZID] | 2.04 | 2.34 |  |  |  |  | 1.74 |  |  |  |  |  | 2.04 |  |  |  |  |  |  | 1.74 | 
O=C(NNC(=O)c1ccc(Cl)cc1)c1ccncc1 | 1.74 | 2.64 |  |  |  |  | 2.34 |  | > 120 µg/mL | > 120 µg/mL |  |  | 2.34 | > 120 µg/mL |  |  |  |  |  | 1.74 | 
O=C(N/N=C/c1c(O)ccc2ccccc12)c1ccncc1 | 2.37 | 2.37 | 0.06 µg/mL (≈ 0.206 µM) | ≥ 20 µg/mL | > 0.04 µg/mL | > 0.8 µg/mL | 2.07 | 0.14 µg/mL (≈ 0.481 µM) | 0.1 µg/mL (≈ 0.343 µM) | > 0.1 µg/mL | 0.4 µg/mL (≈ 1.37 µM) | > 0.04 µg/mL | 2.07 | > 0.1 µg/mL | 0.4 µg/mL (≈ 1.37 µM) | ≥ 0.8 µg/mL | > 0.8 µg/mL | > 0.8 µg/mL | > 0.8 µg/mL | 2.07 | EC50 (Human respirovirus 3): > 0.8 µg/mL; EC50 [12]: > 0.04 µg/mL; MCC [13]: 0.2 µg/mL
CSc1ccc(/C=N/NC(=O)c2ccncc2)cc1 | 2.34 | 2.34 | > 100 µg/mL | > 100 µg/mL | > 20 µg/mL | > 100 µg/mL | 2.04 | > 100 µg/mL | 59 µg/mL (≈ 217 µM) | > 59 µg/mL | > 100 µg/mL | > 20 µg/mL | 2.04 | > 59 µg/mL | > 100 µg/mL | ≥ 100 µg/mL | > 100 µg/mL | 9 µg/mL (≈ 33.2 µM) | > 100 µg/mL | 2.34 | EC50 (Human respirovirus 3): > 100 µg/mL; EC50 [12]: > 20 µg/mL; MCC [13]: 100 µg/mL
O=C(NNC(=O)c1cc([N+](=O)[O-])ccc1Cl)c1ccncc1 | 2.41 | 2.41 |  |  |  |  | 2.11 |  | 116 µg/mL (≈ 361 µM) | > 116 µg/mL |  |  | 2.11 | > 116 µg/mL |  |  |  |  |  | 2.11 | 
O=C(c1ccccc1)N(/N=C/c1ccccc1O)C(=O)c1ccncc1 | 2.44 | 3.04 |  |  |  |  | 2.44 |  |  |  |  |  | 1.84 |  |  |  |  |  |  | 2.44 | 
CCn1cc(C(=O)O)c(=O)c2cc(F)c(N3CCNCC3)cc21 [NORFLOXACIN] |  |  |  |  |  |  | 2.61 |  |  |  |  |  | 2.61 |  |  |  |  |  |  | 2.61 | 
CC(Cl)C(=O)NNC(=O)c1ccncc1 (stereo not drawn) | 2.26 | 2.26 |  |  |  |  | 1.96 |  | 77.5 µg/mL (≈ 340 µM) | > 77.5 µg/mL |  |  | 2.26 | > 77.5 µg/mL |  |  |  |  |  | 2.26 | 
